Data published in US20150224085A1, “METHOD OF ADMINISTERING A 5,5-FUSED HETEROARYLENE HEPATITIS C VIRUS INHIBITOR FOR TREATING OF PREVENTING HEPATITIS C VIRUS INFECTION” (priority 2012, published 2015).
In brackets after ≈: the same amount, converted by molar mass. Read-outs that look alike come from different tables or passages of the source.

Assays:
[1] = tested on: HCV Genotype 1a; assay: Phase I/IIa Group B: plasma HCV RNA reduction after single dose, Genotype 1a; type: in vivo, hepatitis C virus; details: for Maximum Viral Load Reduction after Single Dose: 1 subject; for Mean maximum viral load reduction after Single Dose: 2 subjects
Experimental: (§1) The phase I/IIa study was designed to evaluate safety and tolerability, pharmacokinetics (PK), food effect, and antiviral activity with regard to the Compound. The key safety parameters that were evaluated in the trial include adverse events (AEs), physical examination, vital signs, 12-lead electrocardiogram (ECG), and standard safety laboratory tests. The key antiviral activity parameters that were evaluated in the trial include changes in plasma HCV RNA and emergence of resistance mutations. The key pharmacokinetic parameters that were evaluated in the trial include plasma and urine concentrations of the Compound.
(§2) In the phase I/IIa study, plasma HCV RNA was quantitated using a validated commercial assay (COBAS® TAQMAN®) with a lower limit of quantitation of 25 IU/mL. HCV RNA genotyping was performed at Baseline using the Versant HCV Genotype Assay (LiPA) 2.0.
(§3) In Group B, the Compound was evaluated in an open-label, single day study in 18 subjects with chronic HCV Genotype 1, 2, or 3 infection. […] For all cohorts, dosing was under fasted in this study.

[2] = tested on: least susceptible HCV genotype; assay: Protein-binding adjusted EC90; type: cell-based; details: Hepatitis C virus, read-out: protein-binding adjusted EC90
[3] = 28-day toxicity study in cynomolgus monkeys
Experimental: (§4) Safety margins were calculated based upon proposed human doses in the first-in-human trial and human equivalent dose (HED) calculations derived from the two 28-day toxicology studies in mice and monkeys. This approach is consistent with the United States Food and Drug Administration Guidance for Industry entitled “Estimating the Maximum Safe Starting Dose in Initial Clinical Trials for Therapeutics in Adult Healthy Volunteers,” July 2005.

[4] = in vivo
Experimental: as §1
The Compound was first evaluated in a randomized, double-blind, placebo-controlled, sequential dose escalation study in 48 healthy subjects. For each cohort, there were 6 subjects to receive the Compound and 2 subjects to receive placebo. Except cohort 5a, the Compound was administered under fasted conditions.
as §3

[5] = tested on: HCV Genotype 1b; assay: Phase I/IIa Group B: plasma HCV RNA reduction after single dose, Genotype 1b; type: in vivo, hepatitis C virus; details: 1 subject
Experimental: as §1, §2, §3

[6] = tested on: HCV Genotype 3; assay: Phase I/IIa Group D: HCV RNA reduction, 3-day dosing, Genotype 3; type: in vivo, hepatitis C virus; details: n = 4
Experimental: as §1, §2
(§5) In Group D, the Compound was evaluated in an randomized, double-blind, placebo-controlled, parallel dosing study in 30 treatment-naive, genotypes 2, 3, and 4 HCV-infected subjects.
(§6) For all cohorts, dosing was under fasted in this study.

[7] = clinical; details: human, in vivo
Experimental: as §1, §2
(§7) In Group C, the Compound was evaluated in a randomized, double-blind, placebo-controlled, parallel dosing study in 34 treatment-naive, genotype 1 HCV-infected subjects.
as §5, §6

[8] = tested on: HCV Genotype 2; assay: Phase I/IIa Group B: plasma HCV RNA reduction after single dose, Genotype 2; type: in vivo, hepatitis C virus; details: 1 subject
Experimental: as §1, §2, §3

[9] = 28-day toxicity study in mice
Experimental: as §4

[10] = tested on: HCV Genotype 1, 2, and 3; assay: Phase I/IIa Group B: antiviral activity of single dose across genotypes; type: in vivo, hepatitis C virus; details: Genotype 1, 2, and 3 HCV-infected subjects
Experimental: as §1, §2, §3

[11] = tested on: HCV Genotype 1b; assay: Phase I/IIa Group C: HCV RNA reduction, 3-day dosing, Genotype 1b; type: in vivo, hepatitis C virus
Experimental: as §1, §2, §7, §6

[12] = Phase I/IIa Groups C and D: safety and tolerability; type: in vivo, human
Experimental: as §1, §7, §5, §6

[13] = 28 days, doses up to 250 mg/kg/day
[14] = proposed human dose 1 mg/subject/day (0.02 mg/kg/day)
[15] = proposed human dose 5 mg/subject/day (0.08 mg/kg/day)
[16] = proposed human dose 10 mg/subject/day (0.17 mg/kg/day)
[17] = proposed human dose 25 mg/subject/day (0.42 mg/kg/day)
[18] = proposed human dose 50 mg/subject/day (0.83 mg/kg/day)

Compound: COC(=O)N[C@H](C(=O)N1CCC[C@H]1c1nc2cc(-c3csc4c(-c5ccc(-c6cnc([C@@H]7CCCN7C(=O)[C@H](NC(=O)OC)c7ccccc7)[nH]6)cc5)csc34)ccc2[nH]1)C(C)C [the Compound, [(S)-1-((S)-2-{6-[6-(4-{(S)-2-[1-((R)-2-methoxycarbonylamino-2-phenyl-acetyl)-pyrrolidin-2-yl]-3H-imidazol-4-yl}-phenyl)-thieno[3,2-b]thiophen-3-yl]-1H-benzoimidazol-2-yl}-pyrrolidine-1-carbonyl)-2-methyl-propyl]-carbamic acid methyl ester]
- Maximum Viral Load Reduction after Single Dose ([1]; 1 mg single dose): 0.8^2 log10 IU/mL
- Mean maximum viral load reduction after Single Dose ([1]; 5 mg single dose): 2.6^1 log10 IU/mL
- Maximum Viral Load Reduction after Single Dose ([1]; 10 mg single dose): 2.9^2 log10 IU/mL
- Mean maximum viral load reduction after Single Dose ([1]; 25 mg single dose): 3.7^1 log10 IU/mL
- Maximum Viral Load Reduction after Single Dose ([1]; 50 mg single dose): 2.5^2 log10 IU/mL
- Maximum Viral Load Reduction after Single Dose ([1]; 100 mg single dose): 3.3^2 log10 IU/mL
- EC90 [2]: ~2.3 ng/mL (≈ 2.6 nM)
- no observable effect level (NOEL) ([3]; 28-day monkey study): 250 mg/kg/day
- toxicological target [3, 13]: did not define any toxicological target
- increase in plasma levels with dose ([3]; cynomolgus monkey, in vivo): little or no increase
- Margin of Safety, Monkey [3, 14]: 807 fold
- Margin of Safety, Monkey [3, 15]: 204 fold
- Margin of Safety, Monkey [3, 16]: 95 fold
- Margin of Safety, Monkey [3, 17]: 38 fold
- Margin of Safety, Monkey [3, 18]: 19 fold
- dose-limiting toxicity [4]: no subject met protocol-defined criteria for a dose-limiting toxicity
- intensity of adverse events [4]: mild to moderate
- Maximum Viral Load Reduction after Single Dose ([5]; 1 mg single dose): 3.1^2 log10 IU/mL
- Maximum Viral Load Reduction after Single Dose ([5]; 10 mg single dose): 3.7^2 log10 IU/mL
- Maximum Viral Load Reduction after Single Dose ([5]; 50 mg single dose): 3.2^2 log10 IU/mL
- Maximum Viral Load Reduction after Single Dose ([5]; 100 mg single dose): 3.7^2 log10 IU/mL
- Mean (Range) Maximal HCV RNA Reduction from Baseline ([6]; 50 mg BID x 3 days): 3.3 (2.5-4.6) log10 IU/mL
- Mean (Range) Maximal HCV RNA Reduction from Baseline ([6]; 100 mg QD x 3 days): 3.4 (3.1-3.8) log10 IU/mL
- AUC0-24 ([7]; 25 mg): 235 ± 79.9 ng·h/mL
- Cmax ([7]; 25 mg): 20 ± 6.74 ng/mL
- Tmax ([7]; 25 mg): 3.9 (3.0-6.0) hr
- AUC(0-t) ([7]; 25 mg, AUC0-24): 142 ± 44.5 ng·h/mL
- Cmax ([7]; 25 mg, Cmax): 14 ± 5.19 ng/mL
- Tmax ([7]; 25 mg, Tmax): 3.8 h
- half-life ([7]; 25 mg, t1/2): 20.8 ± 4.06 h
- AUC(0-t) ([7]; 50 mg): 384 ± 204 ng·h/mL
- t1/2 ([7]; 50 mg): 19.7 ± 2.0 h
- AUC(0-t) ([7]; 50 mg, AUC0-12): 260 ± 102 ng·h/mL
- AUC(0-t) ([7]; 50 mg, AUC0-24): 387 ± 115 ng·h/mL
- Cmax ([7]; 50 mg, Cmax): 32 ± 8.12 ng/mL
- Tmax ([7]; 50 mg, Tmax): 3.4 h
- half-life ([7]; 50 mg, t1/2): 23 ± 3.81 h
- t1/2 ([7]; 100 mg): 19.3 ± 2.69 h
- AUC(0-t) ([7]; 100 mg, AUC0-24): 410 ± 122 ng·h/mL
- Cmax ([7]; 100 mg, Cmax): 38 ± 8.6 ng/mL
- Tmax ([7]; 100 mg, Tmax): 3.7 h
- half-life ([7]; 100 mg, t1/2): 22.9 ± 3.6 h
- half-life ([7]; Plasma half-life): ~20 h
- Tmax ([7]; Tmax): 3.3 h
- half-life ([7]; t1/2): 19.7 ± 5.7 h
- Maximum Viral Load Reduction after Single Dose ([8]; 25 mg single dose): 0.4 log10 IU/mL
- Maximum Viral Load Reduction after Single Dose ([8]; 50 mg single dose): 3.2 log10 IU/mL
- Maximum Viral Load Reduction after Single Dose ([8]; 100 mg single dose): 3.5 log10 IU/mL
- no observable effect level (NOEL) ([9]; 28-day mouse study): 150 mg/kg/day
- toxicological target [9, 13]: did not define any toxicological target
- NOAEL at 28 days ([9]; both, mouse, in vivo): 250 mg/kg/day
- liver histology ([9]; males and females, 250 mg/kg/day): minimal to mild diffuse hypertrophy of centrilobular hepatocytes
- increase in plasma levels with dose ([9]; mouse, in vivo, 150 mg/kg/day): little or no increase
- Mean ALT values at Day 29 ([9]; mouse, in vivo, 250 mg/kg/day): 88.4 U/L
- Margin of Safety, Mouse [9, 14]: 610 fold
- Margin of Safety, Mouse [9, 15]: 153 fold
- Margin of Safety, Mouse [9, 16]: 72 fold
- Margin of Safety, Mouse [9, 17]: 29 fold
- Margin of Safety, Mouse [9, 18]: 15 fold
- antiviral activity [10]: potent pan-genotypic antiviral activity
- Mean (Range) Maximal HCV RNA Reduction from Baseline ([11]; 25 mg QD x 3 days, n = 3): 3.0 (2.0-4.2) log10 IU/mL
- Mean (Range) Maximal HCV RNA Reduction from Baseline ([11]; 50 mg QD x 3 days, n = 2): 4.3 (4.1-4.5) log10 IU/mL
- intensity of adverse events ([12]; Groups C and D): mild or moderate
- most common adverse events ([12]; Groups C and D): headache, constipation, and nausea
- discontinuations and serious adverse events ([12]; Groups C and D, 25 to 100 mg/day x 3 days): no safety-related discontinuations or serious adverse events
- safety and tolerability ([12]; daily doses up to 100 mg for 3 days): safe and well tolerated
